From patent US20260132132A1, “3A,4,5,6-TETRAHYDRO-1 H-PYRAZOLO[3,4-C]PYRIDIN-7(7AH)-ONE DERIVATIVES AS FACTOR XIIA INHIBITORS” (KALVISTA PHARMACEUTICALS LIMITED, priority 2022, published 2026)

Experiments:
[1] = target: T1, Human Factor XIIa (hFXIIa) (Homo sapiens, UniProt P00748); assay: Determination of Human Factor XIIa (hFXIIa) inhibition, fluorogenic substrate IC50 assay; assay type: biochemical; settings: fluorogenic substrate H-DPro-Phe-Arg-AFC at Km, 25° C., read-out: Human FXIIa IC50
T1 construct: purchased Enzyme Research Laboratories
T1 sequence (P00748 373-615 limits assumed): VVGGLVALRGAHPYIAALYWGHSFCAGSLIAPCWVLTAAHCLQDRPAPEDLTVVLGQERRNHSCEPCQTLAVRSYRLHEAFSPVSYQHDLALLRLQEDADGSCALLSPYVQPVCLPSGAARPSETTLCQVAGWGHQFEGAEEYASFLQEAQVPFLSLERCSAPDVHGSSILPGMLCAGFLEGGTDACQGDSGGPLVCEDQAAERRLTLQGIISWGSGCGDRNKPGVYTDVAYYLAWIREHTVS
T1 sequence (P00748 20-372 partner limits assumed): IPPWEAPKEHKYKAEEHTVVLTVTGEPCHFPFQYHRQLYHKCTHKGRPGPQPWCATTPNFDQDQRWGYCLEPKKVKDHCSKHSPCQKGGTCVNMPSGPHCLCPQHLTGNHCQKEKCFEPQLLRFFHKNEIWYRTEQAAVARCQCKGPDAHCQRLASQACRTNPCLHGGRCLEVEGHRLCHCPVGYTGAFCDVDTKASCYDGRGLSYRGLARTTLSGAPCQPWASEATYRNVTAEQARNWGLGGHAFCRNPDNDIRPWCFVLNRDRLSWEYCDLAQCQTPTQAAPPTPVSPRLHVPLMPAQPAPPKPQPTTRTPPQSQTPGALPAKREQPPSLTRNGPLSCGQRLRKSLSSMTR
Protocol: Determination of Human Factor XIIa (hFXIIa) inhibition
The Km for the cleavage of the substrate by hFXIIa was determined by standard transformation of the Michaelis-Menten equation, with subsequent inhibition assays performed at substrate Km concentration.

FXa = FXa (Homo sapiens, UniProt P00742); assay: Related protease inhibition: FXa, fluorogenic substrate; assay type: biochemical; settings: fluorogenic substrate at Km, 25° C.; H1-H3 = % activity at 40 μM
Protocol: Human serine protease enzyme Plasma Kallikrein, KLK1, FXa, Plasmin, Thrombin and Trypsin were assayed for enzymatic activity using an appropriate fluorogenic substrate at Km concentration, FXIa at fixed substrate concentration of 100 μM and various concentrations of the test compound.

FXa, sequence (P00742 235-488 limits assumed): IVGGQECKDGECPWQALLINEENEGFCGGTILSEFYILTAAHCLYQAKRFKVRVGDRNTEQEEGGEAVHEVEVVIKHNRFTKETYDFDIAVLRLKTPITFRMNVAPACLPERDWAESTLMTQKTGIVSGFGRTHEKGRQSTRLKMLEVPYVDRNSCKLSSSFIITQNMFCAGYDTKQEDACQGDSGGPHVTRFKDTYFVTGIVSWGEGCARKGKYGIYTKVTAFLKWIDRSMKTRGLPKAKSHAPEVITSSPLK
FXa, sequence (P00742 41-179 partner limits assumed): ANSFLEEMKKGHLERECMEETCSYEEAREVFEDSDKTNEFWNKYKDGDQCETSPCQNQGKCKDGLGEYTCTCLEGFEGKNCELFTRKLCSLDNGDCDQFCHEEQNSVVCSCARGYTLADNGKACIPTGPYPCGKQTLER

COC(=O)C(NC(=O)c1nn(-c2cccc(Cl)c2)c2c1CCN(c1ccc3c(c1)C(=O)N(C)CC3)C2=O)c1cccnc1 (stereo not shown) [Example 1325, methyl 2-(1-(3-chlorophenyl)-6-(2-methyl-1-oxo-1,2,3,4-tetrahydroisoquinolin-7-yl)-7-oxo-4,5,6,7-tetrahydro-1H-pyrazolo[3,4-c]pyridine-3-carboxamido)-2-(pyridin-3-yl)acetate]
IC50 [1]: 100 to 300 nM | IC50 (FXa): 1000 to 3000 nM

Cc1ccnc(C)c1CNC(=O)c1nn(-c2cccc(Cl)c2)c2c1CCN(c1ccc3c(c1)C(=O)N(CCO)CC3)C2=O [Example 1326, 1-(3-chlorophenyl)-N-((2,4-dimethylpyridin-3-yl)methyl)-6-(2-(2-hydroxyethyl)-1-oxo-1,2,3,4-tetrahydroisoquinolin-7-yl)-7-oxo-4,5,6,7-tetrahydro-1H-pyrazolo[3,4-c]pyridine-3-carboxamide]
IC50 [1]: 100 to 300 nM | IC50 (FXa): > 40000 nM

Cc1ccncc1C(C)NC(=O)c1nn(-c2cccc(Cl)c2)c2c1CCN(c1ccc3c(c1)C(=O)N(CCO)CC3)C2=O (stereo not shown) [Example 1327, 1-(3-chlorophenyl)-6-(2-(2-hydroxyethyl)-1-oxo-1,2,3,4-tetrahydroisoquinolin-7-yl)-N-(1-(4-methylpyridin-3-yl)ethyl)-7-oxo-4,5,6,7-tetrahydro-1H-pyrazolo[3,4-c]pyridine-3-carboxamide]
IC50 [1]: 100 to 300 nM | IC50 (FXa): > 40000 nM

CN1CCc2ccc(N3CCc4c(C(=O)NC(C(=O)O)c5cccnc5)nn(-c5cccc(Cl)c5)c4C3=O)cc2C1=O (stereo not shown) [Example 1328, 2-(1-(3-chlorophenyl)-6-(2-methyl-1-oxo-1,2,3,4-tetrahydroisoquinolin-7-yl)-7-oxo-4,5,6,7-tetrahydro-1H-pyrazolo[3,4-c]pyridine-3-carboxamido)-2-(pyridin-3-yl)acetic acid]
IC50 [1]: 300 to 1000 nM | IC50 (FXa): 3000 to 10000 nM

Cc1cc(CNC(=O)c2nn(-c3cccc(Cl)c3)c3c2CCN(c2ccc4c(c2)C(=O)N(CCO)[C@H](C)CO4)C3=O)nn1C [Example 1329, (R)-1-(3-chlorophenyl)-N-((1,5-dimethyl-1H-pyrazol-3-yl)methyl)-6-(4-(2-hydroxyethyl)-3-methyl-5-oxo-2,3,4,5-tetrahydrobenzo[f][1,4]oxazepin-7-yl)-7-oxo-4,5,6,7-tetrahydro-1H-pyrazolo[3,4-c]pyridine-3-carboxamide]
IC50 [1]: 300 to 1000 nM | IC50 (FXa): > 4000 nM

O=C(O)CN1CCc2ccc(N3CCc4c(C(=O)NCC5CC5)nn(-c5cccc(Cl)c5)c4C3=O)cc2C1=O [Example 1330, 2-(7-(1-(3-chlorophenyl)-3-((cyclopropylmethyl)carbamoyl)-7-oxo-1,4,5,7-tetrahydro-6H-pyrazolo[3,4-c]pyridin-6-yl)-1-oxo-3,4-dihydroisoquinolin-2(1H)-yl)acetic acid]
IC50 [1]: 1000 to 3000 nM | IC50 (FXa): > 40000 nM

Cc1cc(CNC(=O)c2nn(-c3cccc(Cl)c3)c3c2CCN(c2ccc4c(c2)C(=O)N(CC(=O)O)CC4)C3=O)nn1C [Example 1331, 2-(7-(1-(3-chlorophenyl)-3-(((1,5-dimethyl-1H-pyrazol-3-yl)methyl)carbamoyl)-7-oxo-1,4,5,7-tetrahydro-6H-pyrazolo[3,4-c]pyridin-6-yl)-1-oxo-3,4-dihydroisoquinolin-2(1H)-yl)acetic acid]
IC50 [1]: 300 to 1000 nM | IC50 (FXa): > 4000 nM

Cc1cc(CNC(=O)c2nn(-c3cccc(Cl)c3)c3c2CCN(c2ccc4c(c2)C(=O)N(CC(=O)O)CC4)C3=O)n[nH]1 [Example 1332, 2-(7-(1-(3-chlorophenyl)-3-(((5-methyl-1H-pyrazol-3-yl)methyl)carbamoyl)-7-oxo-1,4,5,7-tetrahydro-6H-pyrazolo[3,4-c]pyridin-6-yl)-1-oxo-3,4-dihydroisoquinolin-2(1H)-yl)acetic acid]
IC50 [1]: 300 to 1000 nM | IC50 (FXa): > 4000 nM

NC(=O)CN1CCc2ccc(N3CCc4c(C(=O)NCC5CC5)nn(-c5cccc(Cl)c5)c4C3=O)cc2C1=O [Example 1333, 6-(2-(2-amino-2-oxoethyl)-1-oxo-1,2,3,4-tetrahydroisoquinolin-7-yl)-1-(3-chlorophenyl)-N-(cyclopropylmethyl)-7-oxo-4,5,6,7-tetrahydro-1H-pyrazolo[3,4-c]pyridine-3-carboxamide]
IC50 [1]: 300 to 1000 nM | IC50 (FXa): > 4000 nM

CNC(=O)c1nn(-c2cccc(Cl)c2)c2c1CCN(c1ccc3c(c1)C(=O)N(C)CC3)C2=O [Example 1334, 1-(3-chlorophenyl)-N-methyl-6-(2-methyl-1-oxo-1,2,3,4-tetrahydroisoquinolin-7-yl)-7-oxo-4,5,6,7-tetrahydro-1H-pyrazolo[3,4-c]pyridine-3-carboxamide]
IC50 [1]: 300 to 1000 nM | IC50 (FXa): > 40000 nM

CN1CCc2ccc(N3CCc4c(C(=O)N5CCC5)nn(-c5cccc(Cl)c5)c4C3=O)cc2C1=O [Example 1335, 7-(3-(azetidine-1-carbonyl)-1-(3-chlorophenyl)-7-oxo-1,4,5,7-tetrahydro-6H-pyrazolo[3,4-c]pyridin-6-yl)-2-methyl-3,4-dihydroisoquinolin-1(2H)-one]
IC50 [1]: 1000 to 3000 nM | IC50 (FXa): > 40000 nM

CN1CCc2ccc(N3CCc4c(C(=O)N[C@H]5CCOC5)nn(-c5cccc(Cl)c5)c4C3=O)cc2C1=O [Example 1336, (S)-1-(3-chlorophenyl)-6-(2-methyl-1-oxo-1,2,3,4-tetrahydroisoquinolin-7-yl)-7-oxo-N-(tetrahydrofuran-3-yl)-4,5,6,7-tetrahydro-1H-pyrazolo[3,4-c]pyridine-3-carboxamide]
IC50 [1]: 300 to 1000 nM | IC50 (FXa): > 40000 nM

C[C@H](CO)NC(=O)c1nn(-c2cccc(Cl)c2)c2c1CCN(c1ccc3c(c1)C(=O)N(C)CC3)C2=O [Example 1337, (R)-1-(3-chlorophenyl)-N-(1-hydroxypropan-2-yl)-6-(2-methyl-1-oxo-1,2,3,4-tetrahydroisoquinolin-7-yl)-7-oxo-4,5,6,7-tetrahydro-1H-pyrazolo[3,4-c]pyridine-3-carboxamide]
IC50 [1]: 300 to 1000 nM | IC50 (FXa): > 40000 nM

CN1CCc2ccc(N3CCc4c(C(=O)N[C@@H]5CCOC5)nn(-c5cccc(Cl)c5)c4C3=O)cc2C1=O [Example 1338, (R)-1-(3-chlorophenyl)-6-(2-methyl-1-oxo-1,2,3,4-tetrahydroisoquinolin-7-yl)-7-oxo-N-(tetrahydrofuran-3-yl)-4,5,6,7-tetrahydro-1H-pyrazolo[3,4-c]pyridine-3-carboxamide]
IC50 [1]: 300 to 1000 nM | IC50 (FXa): > 40000 nM

CN1CCc2ccc(N3CCc4c(C(=O)NCC5COC5)nn(-c5cccc(Cl)c5)c4C3=O)cc2C1=O [Example 1339, 1-(3-chlorophenyl)-6-(2-methyl-1-oxo-1,2,3,4-tetrahydroisoquinolin-7-yl)-N-(oxetan-3-ylmethyl)-7-oxo-4,5,6,7-tetrahydro-1H-pyrazolo[3,4-c]pyridine-3-carboxamide]
IC50 [1]: 300 to 1000 nM | IC50 (FXa): > 40000 nM

CN1CCc2ccc(N3CCc4c(C(=O)NCCO)nn(-c5cccc(Cl)c5)c4C3=O)cc2C1=O [Example 1340, 1-(3-chlorophenyl)-N-(2-hydroxyethyl)-6-(2-methyl-1-oxo-1,2,3,4-tetrahydroisoquinolin-7-yl)-7-oxo-4,5,6,7-tetrahydro-1H-pyrazolo[3,4-c]pyridine-3-carboxamide]
IC50 [1]: 300 to 1000 nM | IC50 (FXa): > 40000 nM

CN1CCc2ccc(N3CCc4c(C(=O)NCC(=O)O)nn(-c5cccc(Cl)c5)c4C3=O)cc2C1=O [Example 1341, (1-(3-chlorophenyl)-6-(2-methyl-1-oxo-1,2,3,4-tetrahydroisoquinolin-7-yl)-7-oxo-4,5,6,7-tetrahydro-1H-pyrazolo[3,4-c]pyridine-3-carbonyl)glycine]
IC50 [1]: 300 to 1000 nM | IC50 (FXa): 10000 to 40000 nM

CN1CCc2ccc(N3CCc4c(C(=O)NC5COC5)nn(-c5cccc(Cl)c5)c4C3=O)cc2C1=O [Example 1342, 1-(3-chlorophenyl)-6-(2-methyl-1-oxo-1,2,3,4-tetrahydroisoquinolin-7-yl)-N-(oxetan-3-yl)-7-oxo-4,5,6,7-tetrahydro-1H-pyrazolo[3,4-c]pyridine-3-carboxamide]
IC50 [1]: 300 to 1000 nM | IC50 (FXa): > 40000 nM

CN1CCc2ccc(N3CCc4c(C(=O)N5CCCO5)nn(-c5cccc(Cl)c5)c4C3=O)cc2C1=O [Example 1343, 7-(1-(3-chlorophenyl)-3-(isoxazolidine-2-carbonyl)-7-oxo-1,4,5,7-tetrahydro-6H-pyrazolo[3,4-c]pyridin-6-yl)-2-methyl-3,4-dihydroisoquinolin-1(2H)-one]
IC50 [1]: 1000 to 3000 nM | IC50 (FXa): 10000 to 40000 nM

C[C@@H](CO)NC(=O)c1nn(-c2cccc(Cl)c2)c2c1CCN(c1ccc3c(c1)C(=O)N(C)CC3)C2=O [Example 1344, (S)-1-(3-chlorophenyl)-N-(1-hydroxypropan-2-yl)-6-(2-methyl-1-oxo-1,2,3,4-tetrahydroisoquinolin-7-yl)-7-oxo-4,5,6,7-tetrahydro-1H-pyrazolo[3,4-c]pyridine-3-carboxamide]
IC50 [1]: 300 to 1000 nM | IC50 (FXa): 10000 to 40000 nM
